Activity calls are given as the source filed them. No rule for the calls is given here.
Target: Serine/threonine-protein kinase mTOR (Homo sapiens) (UniProt P42345)
Assay: binders of mTOR FRB domain, biophysical, NMR (AID 1648)
Conditions: NMR binding to FRB domain, chemical shift

Chain of Serine/threonine-protein kinase mTOR (Homo sapiens) (P42345 2015-2114): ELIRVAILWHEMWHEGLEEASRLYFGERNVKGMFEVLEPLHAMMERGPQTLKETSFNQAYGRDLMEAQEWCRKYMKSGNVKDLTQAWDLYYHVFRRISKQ

NCC(N)C(=O)c1ccccc1 (configuration not stated)
Kd: > 4 mM (inactive)

CC1(c2ccncc2)NC(=O)NC1=O (configuration not stated)
Kd: > 4 mM (inactive)

COc1cc(C)nc(N(CCO)CCO)n1
Kd: > 4 mM (inactive)

O=C(Nc1ccc(Cl)cn1)c1cnn2cccnc12
Kd: > 4 mM (inactive)

CC(=O)Nc1cc(C(N)=O)cc(C(N)=O)c1
Kd: > 4 mM (inactive)

CN(c1ccccc1C(=O)N1CCCC1)S(C)(=O)=O
Kd: > 4 mM (inactive)

O=C(Nc1cccnc1)c1c(F)c(F)c(F)c(F)c1F
Kd: > 4 mM (inactive)

CCCc1cc(=O)[nH]c2nnc(SCC(C)=O)n12
Kd: > 4 mM (inactive)

O=c1c2ccccc2nc2n1CCC2O (configuration not stated)
Kd: > 4 mM (inactive)

Cc1n[nH]c(C)c1-c1ccccc1C(=O)O
Kd: > 4 mM (inactive)

COCc1cc(C)nc2sc(C(=O)OC)c(N)c12
Kd: > 4 mM (inactive)

NCc1ccc2c(c1)OCO2
Kd: > 4 mM (inactive)

CC(=O)O[C@H]1C[C@@H](OC(C)=O)C(C)(C)C2C[C@@H](OC(C)=O)[C@]3(C)C(CC[C@@]4(C)[C@H](c5ccoc5)C(=O)[C@H]5O[C@]543)[C@]21C (some centres not stated)
Kd: > 4 mM (inactive)

Cc1cc(SCC(=O)Nc2nccs2)nc(=O)[nH]1
Kd: > 4 mM (inactive)

CC1(C)CC(NC(=O)/C=C/C(=O)O)CC(C)(C)N1
Kd: > 4 mM (inactive)

COc1ccc(-c2c(O)c3c(OC)c4c(cc3oc2=O)OC(C)(C)CC4)cc1
Kd: > 4 mM (inactive)

Cc1nc2[nH]onc2c2nccc(=O)c12
Kd: > 4 mM (inactive)

CC(C)=CCc1c2c(c(O)c3c(=O)c(O)c(-c4ccccc4)oc13)C=CC(C)(C)O2
Kd: > 4 mM (inactive)

CCN1CCc2c(sc(N)c2C(N)=O)C1
Kd: > 4 mM (inactive)

Cc1occc1C(=O)NCc1ccccc1F
Kd: > 4 mM (inactive)

O=S(=O)(c1cccc2cccnc12)N1CCOCC1
Kd: > 4 mM (inactive)

C/C=C1\[C@H]2C=C(C)C[C@]1(N)c1ccc(=O)[nH]c1C2
Kd: > 4 mM (inactive)

N[C@@H](Cc1cc(I)c(Oc2cc(I)c(O)c(I)c2)c(I)c1)C(=O)O
Kd: > 4 mM (inactive)

Nc1ccncc1
Kd: > 4 mM (inactive)

Cc1cc(NC(=O)c2ocnc2C)no1
Kd: > 4 mM (inactive)

CN(C)C(=S)Nc1ccccc1N1CCOCC1
Kd: > 4 mM (inactive)

O=C1CSC(=O)N1c1cccc(O)c1
Kd: > 4 mM (inactive)

C[C@@H]1CCC2[C@](C)(CO)[C@@H](O)CC[C@]2(C)[C@@]12CC[C@@](CO)(CCO)O2 (some centres not stated)
Kd: > 4 mM (inactive)

Nc1nc(CSc2ncn(-c3ccccc3)n2)cs1
Kd: > 4 mM (inactive)

CNc1nc(OC)nc(N2CCOCC2)n1
Kd: > 4 mM (inactive)

COC(=O)CC1C(C)(C)C(OC(C)=O)[C@@H]2[C@@H](OC(C)=O)[C@]34O[C@@]2(O)[C@]1(C)C3CC[C@]1(C)C4=CC(=O)O[C@H]1c1ccoc1 (some centres not stated)
Kd: > 4 mM (inactive)

O=C(O)c1onc2ccccc12
Kd: > 4 mM (inactive)

COC(=O)c1ccc2snnc2c1
Kd: > 4 mM (inactive)

CC(=O)Nc1cccc(NC(=O)c2cccnc2)c1
Kd: > 4 mM (inactive)

CN1CCN(c2ccc(CN)cc2)CC1
Kd: > 4 mM (inactive)

O=C(O)c1ncoc1-c1ccccc1
Kd: > 4 mM (inactive)

COc1ccc(C(=O)O)cc1OC
Kd: > 4 mM (inactive)

O=C(Nc1ccccc1F)c1ccncc1
Kd: > 4 mM (inactive)

OCc1cccc2nonc12
Kd: > 4 mM (inactive)

O=c1cc(-c2ccc(O)cc2)oc2cc(O)cc(O)c12
Kd: > 4 mM (inactive)

C[C@H]1[C@H]2CCC3C4CC=C5C[C@@H](N(C)C)CC[C@]5(C)C4CC[C@@]32CN1C (some centres not stated)
Kd: > 4 mM (inactive)

CSc1ccccc1NC(=O)c1ccncc1
Kd: > 4 mM (inactive)

CSc1nnnn1-c1cccc(O)c1
Kd: > 4 mM (inactive)

COC1=CC(C)[C@@H]2C[C@H]3OC(=O)C[C@H]4C(C)=C(OC)C(=O)C([C@@]34C)[C@@]2(C)C1=O (some centres not stated)
Kd: > 4 mM (inactive)

O=c1[nH]c2ccccc2c(=O)n1CCCO
Kd: > 4 mM (inactive)

O=C(O)CCNc1n[nH]c(=O)[nH]c1=O
Kd: > 4 mM (inactive)

CC(C)=CCc1c(O)cc2oc(C)cc(=O)c2c1O
Kd: > 4 mM (inactive)

Cc1nnc(NCc2cccnc2)[nH]c1=O
Kd: > 4 mM (inactive)

O=c1cnnc(NCc2ccc(F)cc2)[nH]1
Kd: > 4 mM (inactive)

COc1ccc2nc(N)sc2n1
Kd: > 4 mM (inactive)

Cc1nn2c(nc1=O)SCC(c1ccccc1)=N2
Kd: > 4 mM (inactive)

Cc1sc2nc(SCC(=O)N(C)C)[nH]c(=O)c2c1C
Kd: > 4 mM (inactive)

CC1(C)CC[C@]2(C(=O)O)CC[C@]3(C)C(=CCC4[C@@]5(C)CC[C@@H](O)C(C)(C)C5CC[C@]43C)C2C1 (some centres not stated)
Kd: > 4 mM (inactive)

CCOc1ccc2ccccc2c1C(=O)N1CCOCC1
Kd: > 4 mM (inactive)

S=C(NCc1cccnc1)NC1CC1
Kd: > 4 mM (inactive)

Cc1cc(C(=O)N2CCN(c3ncccn3)CC2)cs1
Kd: > 4 mM (inactive)

Cc1ccc(-c2c(C)n([O-])c(C)c(C)[n+]2=O)cc1
Kd: > 4 mM (inactive)

— PubChem BioAssay AID1648 (Sanford-Burnham Center for Chemical Genomics, 2009)
